Data set [1] relates to C. elegans. Kind of data set: Thermal avoidance (TAV) single intensity testing (6% laser intensity). The class given is in vivo. How it is done:
One 24 well microtiter plate was set up and incubated overnight on the shaker at 20° C. Each well on the plate was set up with 600 L3/L4-stage N2 animals in NGM with a 1:20 dilution of concentrated HB101 E. coli (food source) in a volume of 300 μl. Before the animal/HB101 solution was added, test compounds were pipetted into wells. 3 μl each for the DMSO controls and LA dilutions were added to each well (1:100 dilutions). Controls and LA dilutions were done in triplicate (total of 9 wells).
6% Response tests—setup: All 9 wells from the 24 well plate were used for 6% testing and the entire well contents (600 animals) were used for each test. Prior to being placed on the agar plate for TAV testing each sample was processed as described for ‘Dose Responses’.
Dose Responses—general notes on analysis: Analysis similar as described in ‘Dose Responses’. In addition, ‘Response ratios’ as well as ‘A Speed responses’ both give measures of how much individual animals changed speed in response to the stimulus (additional information available upon request).
One 24 well microtiter plate was set up and incubated overnight on the shaker at 20° C. Each well on the plate was set up with 600 L3/L4-stage N2 animals in NGM with a 1:20 dilution of concentrated HB101 E. coli (food source) in a volume of 300 μl. Before the animal/HB101 solution was added, test compounds were pipetted into wells. 6 μl each for the water controls and compound dilutions were added to each well (1:50 dilutions). Controls and compound dilutions were done in triplicate (total of 15 wells).
6% Response tests—setup: All 15 wells from the 24 well plate were used for 6% testing) and the entire well contents (600 animals) were used for each test. Prior to being placed on the agar plate for TAV testing each sample was processed as described for ‘Dose Responses’.
One 24 well microtiter plate was set up and incubated overnight on the shaker at 20° C. Each well on the plate was set up with 600 L3/L4-stage N2 animals in NGM with a 1:20 dilution of concentrated HB101 E. coli (food source) in a volume of 300 μl. Before the animal/HB101 solution was added, test compounds were pipetted into wells. 3 μl each for the DMSO controls and LC dilutions were added to each well (1:100 dilutions). Controls and LC dilutions were done in triplicate (total of 9 wells).

Data set [2] concerns C. elegans. Kind of data set: Thermal avoidance (TAV) 3 step dose response testing. Type of data set: in vivo. The settings on record: for effects indicating increased sensory sensitivity: 0%, 6%, 12% laser intensity. The source says: The present invention includes a series of compounds that may be useful for increasing sensory neuron function in certain human neuropathological conditions. C. elegans contains a number of sensory neurons which are responsible for detecting a variety of external stimuli. One such stimulus (heat) can be detected and quantified in C. elegans by the use of thermal avoidance (TAV) technology available through NemaRx. The goal of this experiment was to provide an initial characterization of the compounds via TAV. Specifically, it was asked whether any of these compounds can lead to an increase in the thermal stimulus-induced behavioral response measured by TAV. N2 strain C. elegans animals were used for this project, which have ‘normal’, i.e. wildtype, sensory neuron function. Four compounds were received by NemaRx for TAV testing. These compounds were:
(§1) One 24 well microtiter plate was set up and incubated overnight on the shaker at 20 C. Each well on the plate was set up with 600 L3/L4-stage N2 animals in NGM with a 1:20 dilution of concentrated HB101 E. coli (food source) in a volume of 300 μl. Before the animal/HB101 solution was added, test compounds were pipetted into wells. For water controls and compound stocks/dilutions in water (DHLA, NAC) 6 μl was added to each well (1:50 dilutions). For DMSO controls and compound stocks/dilutions in DMSO (LA) 3 μl was added to each well (1:100 dilutions). No OD620 measurements were taken but the animals were visually scored after 19 h incubation.
Dose Responses—setup: All of the wells from the 24 well plate were used for dose response testing and the entire well contents (600 animals) were used for each test. Prior to being placed on the agar plate for TAV testing each sample was processed as follows: • sample were transferred to glass tube containing 7 ml PBS • animals were allowed to settle for 5 minutes before most of the supernatant was removed (approx. 0.5 ml remaining in tube) • 7 ml PBS was then added, mixed and animals were allowed to settle for 5 minutes most of the supernatant was then removed • animals were removed and transferred to TAV testing plate (NRx Application pattern A) • plate was allowed to dry for 10 minutes (plate cover removed) and TAV testing was initiated. Per plate settings for the dose response experiments were as follows:
Dose Responses—general notes on analysis: A response of the animals to a thermal stimulus (laser) which is applied to the head region can be detected both by a change in the direction of movement, as well as by a change in speed occurring within the test interval where the stimulus is applied. • direction of movement. […] Animals that show a strong change in the direction of movement, i.e. reversals, are classified as LR5 responders. […] LR5 responders show a thermal intensity-dependent increase in the speed of movement (starting off with less than <prelaser speed at low intensities up to > pre-laser speed at high intensities)
The dose response experiments for the current project were carried out with 0% (background control), 6% and 12% settings of laser intensity. In practice, 6% is on the edge of laser intensity required to detect an increase in the number of LR5 responders. As such, 6% should be a useful intensity-setting to detect compound-induced increased sensitivity in the animals. The 12% setting was chosen because this intensity typically gives a robust increase in the number of LR5 responders.
Total Responder speeds, ‘LR1 Responder speeds’ and ‘LR5 Responder speeds’ are shown as normalized speeds to allow better comparison between samples. For normalization purposes the average pre-laser speed is set at 1.0 and responder speeds are calculated relative to this value.
One 24 well microtiter plate was set up and incubated overnight on the shaker at 20° C. Each well on the plate was set up with 600 L3/L4-stage N2 animals in NGM with a 1:20 dilution of concentrated HB101 E. coli (food source) in a volume of 300 μl. […]

The subject of data set [3] is C. elegans. Kind of data set: Visual scoring of C. elegans after overnight incubation with compound in 24 well plate. The settings on record: DHLA1, 1:500 final concentration in well; 19 h incubation; L3/L4-stage N2 animals. The class given is in vivo. On the procedure: as §1
One 24 well microtiter plate was set up and incubated overnight on the shaker at 20° C. Each well on the plate was set up with 600 L3/L4-stage N2 animals in NGM with a 1:20 dilution of concentrated HB101 E. coli (food source) in a volume of 300 μl. Before the animal/HB101 solution was added, test compounds were pipetted into wells. For DMSO controls and compound stocks/dilutions in DMSO (LC) 3 μl was added to each well (1:100 dilutions). No OD620 measurements were taken but the animals were visually scored after 19 h incubation).
One 24 well microtiter plate was set up and incubated overnight on the shaker at 20° C. Each well on the plate was set up with 600 L3/L4-stage N2 animals in NGM with a 1:20 dilution of concentrated HB101 E. coli (food source) in a volume of 300 μl. Before the animal/HB101 solution was added, test compounds were pipetted into wells. For DMSO controls and compound stocks/dilutions in DMSO (LC) 3 μl was added to each well (1:100 dilutions). No OD620 measurements were taken but the animals were visually scored after 22 h incubation).

The subject of the next data set is mice and rats. The settings on record: individually or in combination at high doses, mice and rats; cited from earlier work.
Data set [4] deals with rats. The settings on record: cited from earlier work.
The test system of data set [5] is rats. The settings on record: 10 mg/kg cisplatin s.c. seven days, oral 300 mg/kg acetyl L-carnitine, 300 mg/kg carnitine mixture, 50 mg/kg α-lipoic acid; cited from earlier work.
Data set [6] has as its system male patients with intermediate claudication. The settings on record: cited from earlier work; for TcPCO: after treatment.
Data set [7] has as its system patients with chronic critical limb ischaemia. The settings on record: 1.2 g/day i.v. infusion for two weeks with calcium heparin 25,000 U/day s.c.; over baseline; cited from earlier work.
In data set [8] the test system is C. elegans. Kind of data set: Toxicity testing in C. elegans, 96 well plate, bacterial clearance (OD620). Type of data set: in vivo. The settings on record: highest concentration tested, 8 mM, L1-stage N2 animals, OD620 up to 44 hours, HCl. On the procedure:
The work plan included a i) characterization of the compounds for toxicity in C. elegans and then, using subtoxic concentrations, a ii) characterization of compound effects on neuronal sensitivity as detected by TAV technology. Toxicity characterization follows a well established standard operating protocol used in previous toxicity-type assays in C. elegans. The initial TAV characterization of compound-mediated effects on C. elegans used a number of compound concentrations and incubation times that were selected by NemaRx as being most likely to detect any TAV-related effects that the compounds may have. […] 0% provides a ‘background’ measure, 6% typically gives intermediate TAV responses (and as such should provide a good starting point to detect compound-mediated increased TAV responses), and 12% usually gives robust responses. No obvious effects were detected for either of the four compounds. While the experimental setup provides a good first pass, the limitation lies in the relatively small number of animals that are assayed at each intensity (30). Subtle effects compound-mediated up-regulation at 6% laser intensity may be missed. • Single Intensity Testing: The two highest non-toxic compound concentrations for each of the four compounds were tested at 6% laser intensity. The number of datapoints collected was between 50-80 LA and >100 for the three other compounds. […] The experiment was carried out in quadruplicate. […] Stock Dilution Setup
Two 96 well microtiter plates set up which were incubated at 20 C (both 96 well plates were identical, i.e. the experiment was done in duplicate). Each well on the plates was set up with 100 L1-stage N2 animals in NGM with a 1:20 dilution of concentrated HB101 E. coli (food source) in a volume of 50 μl. Compounds (see below) were then added to the wells. For water controls and compound stocks/dilutions in water (DH LA, NAC) 1 μl was added to each well (1:50 dilutions). For DMSO controls and compound stocks/dilutions in DMSO (LA) 0.5 μl was added to each well (1:100 dilutions). […]

[9] abbreviates: after 600 mg i.v. infusion, compared to pre-treatment values.

Where two headings read alike, the source gives them in different places.

Turning to `O=C(O)CCCC[C@@H](S)CCS` (racemic) [DHLA, Dihydrolipoic acid], the “effect such as increased percentage of LR5 responders” value in the data set with C. elegans [1] (1:1,000 or 1:2,500) is reported as “No obvious effect detected”. Further, the “response of animals that show a LR5 response ('Responder ratios', 'A Speed responses')” value in the data set with C. elegans [1] (1:2,500 concentration) is recorded as “slightly stronger response”. For the same compound, in the data set with C. elegans [2] (even at highest concentration of 1:500), the “effects indicating increased sensory sensitivity” value is reported as “No obvious effects detected”. The “percentage of LR5 responders at 6%” value with C. elegans [2] (second highest concentration (DHLA2)) is on record as “relatively high”. Moreover, the “visual scoring of well clearance” value in the data set on C. elegans [3] is recorded as “some bacteria remaining”.
Take `C[N+](C)(C)CC(O)CC(=O)[O-]` (centres unmarked) [Carnitine]: in the data set with mice and rats, the tolerability and toxicity result was “good tolerability and limited toxicity”. Also, the “area of skin flap necrosis” value in the data set on rats [4] (group 1, 50 mg/kg/day for 1 week) is 12.55 cm^2; with rats [4] (group 2, 100 mg/kg/day for 1 week) it was 9.23 cm^2.
Turning to `N.N.[Cl][Pt][Cl]` [Cisplatin], in the data set with rats [5], the Equilibrium time is 8.4 ± 0.8 s.
For the compound `CCC(=O)O[C@H](CC(=O)[O-])C[N+](C)(C)C` [L-Propionyl Carnitine], in [6] (setting [9]), the Perfusion units entry is recorded as “did not change significantly” and the TcPO result was “did not change significantly”. Also, the “resting TcPCO” value in data set [6] (after 600 mg i.v. infusion) is given as “no significant effects”. Further, in data set [6] (at hypoxia point), the TcPCO is 90.2 mm Hg. Besides, in data set [6] (at rest, after 600 mg i.v. infusion), the “Mean laser-Doppler power spectrum” value is on record as 0.89 units. The “Mean laser-Doppler power spectrum” value in data set [6] (during reperfusion, after 600 mg i.v. infusion) was 2.24 units. Also, the TcPCO in data set [6] (during reperfusion) is listed as 103.5 mm Hg. In data set [7], the “decrease in mean pain score” value was 83%, the “decrease in mean ulcer size (diameter)” value is recorded as 48% and the “increase in mean pain free walking distance (PWD)” value is recorded as 78%.
For `CC(=O)O[C@H](CC(=O)O)C[N+](C)(C)C.[Cl-]` [NAC, N-Acetyl carnitine HCl], the “effects indicating increased sensory sensitivity” value in the data set on C. elegans [1] (8 mM or 4 mM) was “No effects detected”; with C. elegans [2] (even at highest concentration of 8 mM) it was “No obvious effects detected”. The results for the toxicity entry in the data set on C. elegans [8] and in the data set with C. elegans [8] (listed as N-Acetyl carnitine) were “No toxic effects” and “no toxicity observed”, respectively.

The values are drawn from US8318954B2, “Cleavable carnitine compound” (Nou Life Sciences, Inc., priority 2006, dated 2012).
